Data on 37 compounds can be found in patent publication US10266526B2, “Substituted 1,2,3-triazoles as SMYD inhibitors for treating cancer” (EPIZYME, INC., priority 2014, dated 2019).

Bounds are passed on as bounds.

The target in this assay is SMYD2 (Homo sapiens (Human), UniProt Q9NRG4). The assay is described as follows: SMYD2 biochemical assay (SMYD2 enzyme assay on peptide substrate, 3H-SAM Flashplate). Particulars: read-out: SMYD2 Biochem IC50; IC50 values are an average of n = 1 to n = 50.
SMYD2, sequence (Q9NRG4 whole entry): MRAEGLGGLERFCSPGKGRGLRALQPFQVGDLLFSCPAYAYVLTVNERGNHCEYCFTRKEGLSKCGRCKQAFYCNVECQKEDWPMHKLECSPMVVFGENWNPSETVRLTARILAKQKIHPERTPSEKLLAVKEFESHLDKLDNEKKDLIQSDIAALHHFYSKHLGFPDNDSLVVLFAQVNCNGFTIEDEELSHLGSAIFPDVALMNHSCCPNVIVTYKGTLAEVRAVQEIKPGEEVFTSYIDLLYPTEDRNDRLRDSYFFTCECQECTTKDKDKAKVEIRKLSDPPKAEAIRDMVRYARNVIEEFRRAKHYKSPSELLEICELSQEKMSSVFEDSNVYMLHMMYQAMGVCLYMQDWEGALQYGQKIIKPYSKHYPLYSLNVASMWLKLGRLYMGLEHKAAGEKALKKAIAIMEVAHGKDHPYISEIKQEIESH
Usually IC50 stands for the midpoint of a concentration-inhibition curve. Turning to `O=C(NC1CN(Cc2cnn(Cc3cccc(Cl)c3)c2)C1)c1cn(C2CC2)nn1` [compound 987, N-(1-((1-(3-chlorobenzyl)-1H-pyrazol-4-yl)methyl)azetidin-3-yl)-1-cyclopropyl-1H-1,2,3-triazole-4-carboxamide], the IC50 was 24 nM.

With `COc1ccc(Cl)c(C(C)N2CC(NC(=O)c3cn(C4CC4)nn3)C2)c1` (stereo not shown) [compound 938, N-(1-(1-(2-chloro-5-methoxyphenyl)ethyl)azetidin-3-yl)-1-cyclopropyl-1H-1,2,3-triazole-4-carboxamide], the IC50 turned out to be 130 nM.

With `CCC(c1ccc(F)cc1)N1CC(NC(=O)c2cn(C3CC3)nn2)C1` (stereo not shown) [compound 694, 1-cyclopropyl-N-{1-[1-(4-fluorophenyl)propyl]azetidin-3-yl}-1H-1,2,3-triazole-4-carboxamide], the IC50 was found to be 787 nM.

Consider `CC(C)N1CC(NC(=O)c2cc(C3CC3)ccn2)C1` [compound 961, 4-cyclopropyl-N-(1-isopropylazetidin-3-yl)picolinamide], for which the IC50 stood at 1300 nM.

On to `COc1cccc(C(C)N2CC(NC(=O)c3cn(C4CC4)nn3)C2)c1` (stereo not shown) [compound 679, 1-cyclopropyl-N-{1-[1-(3-methoxyphenyl)ethyl]azetidin-3-yl}-1H-1,2,3-triazole-4-carboxamide], for which the IC50 was found to be 1450 nM.

For `O=C(NC1CN(C2CCc3cc(F)ccc32)C1)c1cn(C2CC2)nn1` (stereo not shown) [compound 740, 1-cyclopropyl-N-[1-(5-fluoro-2,3-dihydro-1H-inden-1-yl)azetidin-3-yl]-1H-1,2,3-triazole-4-carboxamide], the IC50 was found to be 6960 nM.

As for `Cn1cnc(CN2CC(NC(=O)c3cn(C4CC4)nn3)C2)c1` [compound 733, 1-cyclopropyl-N-{1-[(1-methyl-1H-imidazol-4-yl)methyl]azetidin-3-yl}-1H-1,2,3-triazole-4-carboxamide], the IC50 was 6800 nM.

As to `O=C(NC1CN(Cc2cnn(CCc3ccccc3)c2)C1)c1cn(C2CC2)nn1` [compound 806, 1-cyclopropyl-N-(1-{[1-(2-phenylethyl)-1H-pyrazol-4-yl]methyl}azetidin-3-yl)-1H-1,2,3-triazole-4-carboxamide], the IC50 was found to be 970 nM.

In the case of `CC(c1ccc2nn(C)cc2c1)N1CC(NC(=O)c2cn(C3CC3)nn2)C1` (stereo not shown) [compound 935, 1-cyclopropyl-N-(1-(1-(2-methyl-2H-indazol-5-yl)ethyl)azetidin-3-yl)-1H-1,2,3-triazole-4-carboxamide], the IC50 turned out to be 1600 nM.

On to `COCCN1CC(NC(=O)c2cn(C3CC3)nn2)C1` [compound 667, 1-cyclopropyl-N-[1-(2-methoxyethyl)azetidin-3-yl]-1H-1,2,3-triazole-4-carboxamide], for which the IC50 was 2460 nM.

For `CC(c1ccc(OCC(=O)N2CCOCC2)cc1)N1CC(NC(=O)c2cn(C3CC3)nn2)C1` (stereo not shown) [compound 829, 1-cyclopropyl-N-[1-(1-(4-[2-(morpholin-4-yl)-2-oxoethoxy]phenyl}ethyl)azetidin-3-yl]-1H-1,2,3-triazole-4-carboxamide], the IC50 came to 713 nM.

For the compound `CNC(=O)c1ccc(COc2ccc(C(C)N3CC(NC(=O)c4cn(C5CC5)nn4)C3)cc2)cc1` (stereo not shown) [compound 963, 1-cyclopropyl-N-(1-(1-(4-((4-(methylcarbamoyl)benzyl)oxy)phenyl)ethyl)azetidin-3-yl)-1H-1,2,3-triazole-4-carboxamide], the IC50 stood at 970 nM.

`CC(C)N1CCC(NC(=O)c2cc(C3CC3)cnn2)CC1` [compound 916, 5-cyclopropyl-N-[1-(propan-2-yl)piperidin-4-yl]pyridazine-3-carboxamide]: the IC50 amounted to 29100 nM.

`CN(C)CCCNC(=O)c1cc(C2CC2)cnn1` [compound 867, 5-cyclopropyl-N-[3-(dimethylamino)propyl]pyridazine-3-carboxamide]: the IC50 was over 50000 nM.

Consider `C[C@@H](c1ccccc1)N1CC(NC(=O)c2cc(C3CC3)cnn2)C1` [compound 646, 5-cyclopropyl-N-{1-[(1S)-1-phenylethyl]azetidin-3-yl}pyridazine-3-carboxamide], for which the IC50 was determined as 516 nM.

In the case of `CC(c1cccc(Cl)c1Cl)N1CC(NC(=O)c2cn(C3CC3)nn2)C1` (stereo not shown) [compound 743, 1-cyclopropyl-N-{1-[1-(2,3-dichlorophenyl)ethyl]azetidin-3-yl}-1H-1,2,3-triazole-4-carboxamide], the IC50 is 488 nM.

For the compound `CC(c1c[nH]cn1)N1CC(NC(=O)c2cn(C3CC3)nn2)C1` (stereo not shown) [compound 785, 1-cyclopropyl-N-{1-[1-(1H-imidazol-4-yl)ethyl]azetidin-3-yl}-1H-1,2,3-triazole-4-carboxamide], the IC50 was determined as 2590 nM.

Turning to `O=C(NC1CN(C(CO)c2ccccc2)C1)c1cn(C2CC2)nn1` (stereo not shown) [compound 674, 1-cyclopropyl-N-[1-(2-hydroxy-1-phenylethyl)azetidin-3-yl]-1H-1,2,3-triazole-4-carboxamide], the IC50 stood at 4270 nM.

As for `CN1[C@@H]2CC[C@H]1C[C@H](NC(=O)c1cc(C3CC3)cnn1)C2` [compound 1023, 5-cyclopropyl-N-((1R,3s,5S)-8-methyl-8-azabicyclo[3.2.1]octan-3-yl)pyridazine-3-carboxamide], the IC50 was 6300 nM.

As to `CC(c1ccc(OCc2ccccc2)cc1)N1CC(NC(=O)c2cc(C3CC3)cnn2)C1` (stereo not shown) [compound 836, N-(1-{1-[4-(benzyloxy)phenyl]ethyl}azetidin-3-yl)-5-cyclopropylpyridazine-3-carboxamide], the IC50 amounted to 26.5 nM.

Turning to `Cn1cc(CN2CC(NC(=O)c3cc(C4CC4)cnn3)C2)c(Cl)n1` [compound 833, N-{1-[(3-chloro-1-methyl-1H-pyrazol-4-yl)methyl]azetidin-3-yl}-5-cyclopropylpyridazine-3-carboxamide], the IC50 worked out at 940 nM.

`COc1cccc(C(C)N2CC(NC(=O)c3cc(C4CC4)cnn3)C2)c1Cl` (stereo not shown) [compound 965, N-(1-(1-(2-chloro-3-memoxyphenyl)ethyl)azetidin-3-yl)-5-cyclopropylpyridazine-3-carboxamide]: the IC50 was determined as 72 nM.

Consider `CCN1CC(NC(=O)c2cc(C3CC3)cnn2)C1` [compound 814, 5-cyclopropyl-N-(1-ethylazetidin-3-yl)pyridazine-3-carboxamide], for which the IC50 is 598 nM.

Regarding `O=C(NC1CN(Cc2cnn(Cc3ccc(Cl)cc3)c2)C1)c1cn(C2CC2)nn1` [compound 985, N-(1-((1-(4-Chlorobenzyl)-1H-pyrazol-4-yl)methyl)azetidin-3-yl)-1-cyclopropyl-1H-1,2,3-triazole-4-carboxamide], the IC50 amounted to 3.9 nM.

Turning to `COc1ccc(C(C)N2CC(NC(=O)c3cn(C4CC4)nn3)C2)nc1` (stereo not shown) [compound 923, 1-cyclopropyl-N-(1-(1-(5-methoxypyridin-2-yl)ethyl)azetidin-3-yl)-1H-1,2,3-triazole-4-carboxamide], the half-maximal inhibitory concentration (IC50) turned out to be 2700 nM.

In the case of `CC(NC(=O)c1cc(C2CC2)cnn1)C1CCCCN1C` (stereo not shown) [compound 981, 5-cyclopropyl-N-(1-(1-methylpiperidin-2-yl)ethyl)pyridazine-3-carboxamide], the IC50 is over 50000 nM.

For `COc1ccccc1Cn1cc(CN2CC(NC(=O)c3cn(C4CC4)nn3)C2)cn1` [compound 995, 1-cyclopropyl-N-(1-((1-(2-methoxybenzyl)-1H-pyrazol-4-yl)methyl)azetidin-3-yl)-1H-1,2,3-triazole-4-carboxamide], the IC50 was determined as 1300 nM.

As for `O=C(NC1CN(Cc2cnn(Cc3ccccc3)c2)C1)c1cn(C2CC2)cn1` [compound 1022, N-(1-((1-benzyl-1H-pyrazol-4-yl)methyl)azetidin-3-yl)-1-cyclopropyl-1H-imidazole-4-carboxamide], the IC50 was determined as 73 nM.

In the case of `Cn1cc(COc2ccc(CN3CC(NC(=O)c4cc(C5CC5)cnn4)C3)cc2)cn1` [compound 928, 5-cyclopropyl-N-(1-(4-((1-methyl-1H-pyrazol-4-yl)methoxy)benzyl)azetidin-3-yl)pyridazine-3-carboxamide], the IC50 is 610 nM.

Take `O=C(NC1CN(Cc2ccc(O)cc2)C1)c1cn(C2CC2)nn1` [compound 824, 1-cyclopropyl-N-{1-[(4-hydroxyphenyl)methyl]azetidin-3-yl}-1H-1,2,3-triazole-4-carboxamide]: the IC50 stood at 882 nM.

Consider `COCCOc1cccc(CN2CC(NC(=O)c3cn(C4CC4)nn3)C2)c1` [compound 701, 1-cyclopropyl-N-(1-{[3-(2-methoxyethoxy)phenyl]methyl}azetidin-3-yl)-1H-1,2,3-triazole-4-carboxamide], for which the IC50 was 8030 nM.

For the compound `COc1ccc(C(C)N2CC(NC(=O)c3cn(C4CC4)nn3)C2)c(Cl)c1` (stereo not shown) [compound 1002, N-(1-(1-(2-chloro-4-methoxyphenyl)ethyl)azetidin-3-yl)-1-cyclopropyl-1H-1,2,3-triazole-4-carboxamide], the IC50 worked out at 88 nM.

As to `CNC1CCOC(CN2CC(NC(=O)c3cn(C4CC4)nn3)C2)C1` (stereo not shown) [compound 758, 1-cyclopropyl-N-(1-{[4-(methylamino)oxan-2-yl]methyl}azetidin-3-yl)-1H-1,2,3-triazole-4-carboxamide], the IC50 is over 50000 nM.

For `O=C(NC1CN(Cc2ccc(OCc3nncs3)cc2)C1)c1cn(C2CC2)nn1` [compound 988, N-(1-(4-((1,3,4-thiadiazol-2-yl)methoxy)benzyl)azetidin-3-yl)-1-cyclopropyl-1H-1,2,3-triazole-4-carboxamide], the IC50 worked out at 1900 nM.

For `O=C(NC1CN(Cc2cnn(Cc3ccccc3)c2)C1)c1cn(C2CC2)nn1` [compound 792, N-{1-[(1-benzyl-1H-pyrazol-4-yl)methyl]azetidin-3-yl}-1-cyclopropyl-1H-1,2,3-triazole-4-carboxamide], the IC50 was determined as 16.4 nM.

Consider `C[C@@H](c1ccccc1)N1CC(NC(=O)c2cn(C3CC3)nn2)C1` [compound 709, 1-cyclopropyl-N-{1-[(1S)-1-phenylethyl]azetidin-3-yl}-1H-1,2,3-triazole-4-carboxamide], for which the IC50 is 377 nM.

Consider `O=C(NC1CN(CCCO)C1)c1cn(C2CC2)nn1` [compound 707, 1-cyclopropyl-N-[1-(3-hydroxypropyl)azetidin-3-yl]-1H-1,2,3-triazole-4-carboxamide], for which the IC50 was found to be 1910 nM.
